Measurements as given in patent US20020137929A1, “1 - (3-heterocyclylphenyl) isothiourea, -isourea, -guanidine and -amidine herbicidal agents” (Intellectual Property Department, BASF Aktiengesellschaft, priority 1998, published 2002).

Experiments:
GALAP (Galium) = experiment: Preemergence herbicidal evaluation; type: in vivo, Galium aparine; conditions: rated 4-5 weeks after treatment
Method in brief: (§1)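 Scores (0–9) reflect visual comparison with control plants for stand, vigor, malformation, size and chlorosis. Compound was applied to the soil after sowing, before emergence, as an aqueous acetone spray (about 0.0156–0.500 kg/ha), and cups were kept in a greenhouse for 4–5 weeks.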

ZEAMX (Corn, Field) = experiment: Preemergence herbicidal evaluation; type: in vivo, Zea mays; conditions: rated 4-5 weeks after treatment
Method in brief: as §1

ORYSAT (Rice, Tebonnet) [1] = experiment: Postemergence herbicidal evaluation; type: in vivo, Oryza sativa, (L.) Tebonnet
Method in brief: (§2)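 Rate range approx. 0.0156–0.500 kg/ha. Foliar application at 40 psi to ~2-week seedlings; surfactant 0.5% TWEEN 20 in 50/50 acetone/water. Evaluation 4–5 wk post-treatment by 0–9 visual injury score, means of replicate tests.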

CYPSE (Flatsedge) = experiment: Postemergence weed control under flooded paddy conditions; type: in vivo, Cyperus serotinus; conditions: postemergence weeds, rated 3 to 4 weeks after treatment
Method in brief: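 Weeds 3 to 5 cm tall and rice seedlings at the 1.5 to 2.5 leaf stage were flooded, with water held 1.5 to 3 cm above the soil. Compounds in 50/50 v/v aqueous/acetone went into the flood water at about 0.0313 to 0.500 kg/ha. Visual 0-9 ratings versus control were made 3 to 4 weeks later.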

MOOVA (Monochoria) = experiment: Preemergence weed control under flooded paddy conditions; type: in vivo, Monochoria vaginalis; conditions: rated 3-4 weeks after treatment
Method in brief: (§3)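 Visual injury scored 0-9 against control three to four weeks post-treatment, greenhouse-grown. Application: acetone/water (50/50) solutions dosed directly into flood water (1.5-3 cm over silt loam, planted top 0.5 cm), roughly 0.0313 to 0.500 kg/ha active ingredient.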

CYPIR (Rice Flatsedge) = experiment: as above; type: in vivo, Cyperus iria; conditions: rated 3-4 weeks after treatment
Method in brief: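 Silt loam, seeds in top 0.5 cm; flood held 1.5-3 cm; test cpd as acetone/water 50/50 into flood water, ~0.0313-0.500 kg/ha a.i.; greenhouse 3-4 wk; visual 0-9 score vs control.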

CASOB (Sicklepod) = experiment: Postemergence herbicidal evaluation; type: in vivo, Cassia obtusifolia
Method in brief: as §2

[2] = tested on: GLXMAW (Soybean, Williams); experiment: Preemergence herbicidal evaluation; type: in vivo, Glycine max, (L.) Merr. cv Williams; conditions: rated 4-5 weeks after treatment
Method in brief: as §1

[3] = tested on: SAGPY (Arrowhead (Pygmaea)); experiment: Preemergence weed control under flooded paddy conditions; type: in vivo, Sagittaria pygmaea; conditions: rated 3-4 weeks after treatment
Method in brief: as §3

ECHCG (Barnyardgrass) = experiment: Postemergence herbicidal evaluation; type: in vivo, Echinochloa crus-galli
Method in brief: as §2

ORYSAT (Rice, Tebonnet) [4] = experiment: Preemergence herbicidal evaluation; type: in vivo, Oryza sativa, (L.) Tebonnet; conditions: rated 4-5 weeks after treatment
Method in brief: as §1

SETVI (Foxtail, Green) = experiment: Preemergence herbicidal evaluation; type: in vivo, Setaria viridis; conditions: rated 4-5 weeks after treatment
Method in brief: as §1

[5] = tested on: CHEAL (Lambsquarters, Common); experiment: Postemergence herbicidal evaluation; type: in vivo, Chenopodium album
Method in brief: as §2

[6] = tested on: TRZAWR (Wheat, Winter, cv Riband); experiment: Preemergence herbicidal evaluation; type: in vivo, Triticum aestivum; conditions: rated 4-5 weeks after treatment
Method in brief: as §1

Cn1c(C(F)(F)F)cc(=O)n(-c2cc(/N=C3/SC(CC(=O)O)C(=O)N3CC(=O)O)c(Cl)cc2F)c1=O (centres unmarked) [Compound 61, 2-{{2-Chloro-5-[3,6-dihydro-3-methyl-2,6-dioxo-4-(trifluoromethyl)-1(2H)-pyrimidinyl]-4-fluorophenyl}imino}-4-oxo-3,5-thiazolidinediacetic acid]
0.0: Preemergence herbicidal rating GALAP (GALAP (Galium); rate 0.1250 kg/ha) | Preemergence herbicidal rating GALAP (GALAP (Galium); rate 0.2500 kg/ha) | Preemergence herbicidal rating ZEAMX (ZEAMX (Corn, Field); rate 0.1250 kg/ha) | Herbicidal rating CYPSE (CYPSE (Flatsedge); Rate 0.2500 kg/ha) | MOOVA herbicidal effect rating (MOOVA (Monochoria); 0.2500 kg/ha) | CYPIR herbicidal effect rating (CYPIR (Rice Flatsedge); 0.2500 kg/ha) | Postemergence herbicidal rating CASOB (CASOB (Sicklepod); Rate 0.0158 kg/ha) | Postemergence herbicidal rating CASOB (CASOB (Sicklepod); Rate 0.0315 kg/ha) | Postemergence herbicidal rating CASOB (CASOB (Sicklepod); Rate 0.0630 kg/ha) | Preemergence herbicidal rating GLXMAW ([2]; rate 0.1250 kg/ha) | SAGPY herbicidal effect rating ([3]; 0.2500 kg/ha) | Postemergence herbicidal rating ECHCG (ECHCG (Barnyardgrass); Rate 0.0158 kg/ha) | Postemergence herbicidal rating ECHCG (ECHCG (Barnyardgrass); Rate 0.0315 kg/ha) | Postemergence herbicidal rating ECHCG (ECHCG (Barnyardgrass); Rate 0.0630 kg/ha) | Preemergence herbicidal rating ORYSAT (ORYSAT (Rice, Tebonnet) [4]; rate 0.1250 kg/ha) | Preemergence herbicidal rating SETVI (SETVI (Foxtail, Green); rate 0.1250 kg/ha) | Postemergence herbicidal rating CHEAL ([5]; Rate 0.0158 kg/ha) | Postemergence herbicidal rating CHEAL ([5]; Rate 0.0315 kg/ha) | Postemergence herbicidal rating CHEAL ([5]; Rate 0.0630 kg/ha) | Preemergence herbicidal rating TRZAWR ([6]; rate 0.1250 kg/ha)
1.5: Postemergence herbicidal rating ORYSAT (ORYSAT (Rice, Tebonnet) [1]; Rate 0.0630 kg/ha)
0.5: Postemergence herbicidal rating ORYSAT (ORYSAT (Rice, Tebonnet) [1]; Rate 0.0158 kg/ha) | Postemergence herbicidal rating ORYSAT (ORYSAT (Rice, Tebonnet) [1]; Rate 0.0315 kg/ha)
1.0: Preemergence herbicidal rating ZEAMX (ZEAMX (Corn, Field); rate 0.2500 kg/ha) | Preemergence herbicidal rating GLXMAW ([2]; rate 0.2500 kg/ha) | Preemergence herbicidal rating ORYSAT (ORYSAT (Rice, Tebonnet) [4]; rate 0.2500 kg/ha) | Preemergence herbicidal rating SETVI (SETVI (Foxtail, Green); rate 0.2500 kg/ha) | Preemergence herbicidal rating TRZAWR ([6]; rate 0.2500 kg/ha)

CN1C(=O)C(CC(=O)O)SC1=Nc1cc(-n2c(=O)cc(C(F)(F)F)n(C)c2=O)c(F)cc1Cl (centres unmarked) [Compound 63, 2-{{2-Chloro-5-[3,6-dihydro-3-methyl-2,6-dioxo-4-(trifluoromethyl)-1(2H)-pyrimidinyl]-4-fluoro-phenyl}imino}-3-methyl-4-oxo-5-thiazolidineacetic acid]
5.0: Postemergence herbicidal rating ORYSAT (ORYSAT (Rice, Tebonnet) [1]; Rate 0.0158 kg/ha) | Postemergence herbicidal rating ORYSAT (ORYSAT (Rice, Tebonnet) [1]; Rate 0.0315 kg/ha) | Postemergence herbicidal rating CASOB (CASOB (Sicklepod); Rate 0.0630 kg/ha) | Preemergence herbicidal rating ORYSAT (ORYSAT (Rice, Tebonnet) [4]; rate 0.0625 kg/ha)
0.0: Preemergence herbicidal rating GALAP (GALAP (Galium); rate 0.0156 kg/ha) | Preemergence herbicidal rating GALAP (GALAP (Galium); rate 0.0313 kg/ha) | Preemergence herbicidal rating GALAP (GALAP (Galium); rate 0.0625 kg/ha) | Preemergence herbicidal rating ZEAMX (ZEAMX (Corn, Field); rate 0.0156 kg/ha) | Herbicidal rating CYPSE (CYPSE (Flatsedge); Rate 0.0313 kg/ha) | Herbicidal rating CYPSE (CYPSE (Flatsedge); Rate 0.0625 kg/ha) | Herbicidal rating CYPSE (CYPSE (Flatsedge); Rate 0.1250 kg/ha) | Herbicidal rating CYPSE (CYPSE (Flatsedge); Rate 0.2500 kg/ha) | Postemergence herbicidal rating CASOB (CASOB (Sicklepod); Rate 0.0158 kg/ha) | Preemergence herbicidal rating GLXMAW ([2]; rate 0.0156 kg/ha) | Preemergence herbicidal rating ORYSAT (ORYSAT (Rice, Tebonnet) [4]; rate 0.0156 kg/ha) | Preemergence herbicidal rating ORYSAT (ORYSAT (Rice, Tebonnet) [4]; rate 0.0313 kg/ha) | Preemergence herbicidal rating SETVI (SETVI (Foxtail, Green); rate 0.0156 kg/ha) | Preemergence herbicidal rating SETVI (SETVI (Foxtail, Green); rate 0.0313 kg/ha) | Preemergence herbicidal rating TRZAWR ([6]; rate 0.0156 kg/ha) | Preemergence herbicidal rating TRZAWR ([6]; rate 0.0313 kg/ha)
1.0: Preemergence herbicidal rating ZEAMX (ZEAMX (Corn, Field); rate 0.0313 kg/ha) | Preemergence herbicidal rating GLXMAW ([2]; rate 0.0313 kg/ha) | Preemergence herbicidal rating SETVI (SETVI (Foxtail, Green); rate 0.0625 kg/ha) | Preemergence herbicidal rating TRZAWR ([6]; rate 0.0625 kg/ha)
7.0: Preemergence herbicidal rating ZEAMX (ZEAMX (Corn, Field); rate 0.2500 kg/ha) | CYPIR herbicidal effect rating (CYPIR (Rice Flatsedge); 0.1250 kg/ha) | CYPIR herbicidal effect rating (CYPIR (Rice Flatsedge); 0.2500 kg/ha) | Preemergence herbicidal rating GLXMAW ([2]; rate 0.2500 kg/ha) | SAGPY herbicidal effect rating ([3]; 0.0625 kg/ha) | Preemergence herbicidal rating ORYSAT (ORYSAT (Rice, Tebonnet) [4]; rate 0.1250 kg/ha) | Preemergence herbicidal rating ORYSAT (ORYSAT (Rice, Tebonnet) [4]; rate 0.2500 kg/ha) | Postemergence herbicidal rating CHEAL ([5]; Rate 0.0630 kg/ha) | Preemergence herbicidal rating TRZAWR ([6]; rate 0.2500 kg/ha)
6.0: Preemergence herbicidal rating ZEAMX (ZEAMX (Corn, Field); rate 0.1250 kg/ha) | Postemergence herbicidal rating ORYSAT (ORYSAT (Rice, Tebonnet) [1]; Rate 0.0630 kg/ha) | CYPIR herbicidal effect rating (CYPIR (Rice Flatsedge); 0.0625 kg/ha) | Preemergence herbicidal rating GLXMAW ([2]; rate 0.1250 kg/ha) | Postemergence herbicidal rating ECHCG (ECHCG (Barnyardgrass); Rate 0.0630 kg/ha) | Preemergence herbicidal rating TRZAWR ([6]; rate 0.1250 kg/ha)
4.0: Preemergence herbicidal rating GLXMAW ([2]; rate 0.0625 kg/ha) | SAGPY herbicidal effect rating ([3]; 0.0313 kg/ha)
2.0: Preemergence herbicidal rating ZEAMX (ZEAMX (Corn, Field); rate 0.0625 kg/ha) | CYPIR herbicidal effect rating (CYPIR (Rice Flatsedge); 0.0313 kg/ha) | Postemergence herbicidal rating ECHCG (ECHCG (Barnyardgrass); Rate 0.0158 kg/ha) | Postemergence herbicidal rating ECHCG (ECHCG (Barnyardgrass); Rate 0.0315 kg/ha)
9.0: Preemergence herbicidal rating GALAP (GALAP (Galium); rate 0.1250 kg/ha) | Preemergence herbicidal rating GALAP (GALAP (Galium); rate 0.2500 kg/ha) | MOOVA herbicidal effect rating (MOOVA (Monochoria); 0.0313 kg/ha) | MOOVA herbicidal effect rating (MOOVA (Monochoria); 0.0625 kg/ha) | MOOVA herbicidal effect rating (MOOVA (Monochoria); 0.1250 kg/ha) | MOOVA herbicidal effect rating (MOOVA (Monochoria); 0.2500 kg/ha) | SAGPY herbicidal effect rating ([3]; 0.1250 kg/ha) | SAGPY herbicidal effect rating ([3]; 0.2500 kg/ha) | Preemergence herbicidal rating SETVI (SETVI (Foxtail, Green); rate 0.1250 kg/ha) | Preemergence herbicidal rating SETVI (SETVI (Foxtail, Green); rate 0.2500 kg/ha) | Postemergence herbicidal rating CHEAL ([5]; Rate 0.0158 kg/ha) | Postemergence herbicidal rating CHEAL ([5]; Rate 0.0315 kg/ha)
3.0: Postemergence herbicidal rating CASOB (CASOB (Sicklepod); Rate 0.0315 kg/ha)
